{"source": "PubChem BioAssay AID1259407", "about": "(Chemical Carcinogenesis Research Information System (CCRIS), 2018)", "test_system": "CCRIS mutagenicity, Ames/micronucleus/aberration tests", "assay": "CCRIS mutagenicity studies", "key": {"[1]": {"conditions": "Test System: AMES SALMONELLA TYPHIMURIUM, Strain/Indicator: TA98, Metabolic Activation: NONE, Method: STANDARD PLATE"}, "[2]": {"conditions": "Test System: AMES SALMONELLA TYPHIMURIUM, Strain/Indicator: TA100, Metabolic Activation: NONE, Method: STANDARD PLATE"}}, "note": "Active and inactive are the calls of the source. No rule for the calls is given here.", "data": [{"smiles": "FC(F)(F)c1ccc(Cl)cc1", "values": [{"measurement": "mutagenic call", "setting": "Test System: AMES SALMONELLA TYPHIMURIUM, Strain/Indicator: TA98, Metabolic Activation: HAMSTER, LIVER, S-9, AROCLOR 1254, Method: STANDARD PLATE", "value": "inactive; negative"}, {"measurement": "mutagenic call", "setting": "[1]", "value": "inactive; negative"}, {"measurement": "mutagenic call", "setting": "Test System: AMES SALMONELLA TYPHIMURIUM, Strain/Indicator: TA98, Metabolic Activation: RAT, LIVER, S-9, AROCLOR 1254, Method: STANDARD PLATE", "value": "inactive; negative"}, {"measurement": "mutagenic call", "setting": "Test System: AMES SALMONELLA TYPHIMURIUM, Strain/Indicator: TA100, Metabolic Activation: HAMSTER, LIVER, S-9, AROCLOR 1254, Method: STANDARD PLATE", "value": "inactive; negative"}, {"measurement": "mutagenic call", "setting": "[2]", "value": "inactive; negative"}, {"measurement": "mutagenic call", "setting": "Test System: AMES SALMONELLA TYPHIMURIUM, Strain/Indicator: TA100, Metabolic Activation: RAT, LIVER, S-9, AROCLOR 1254, Method: STANDARD PLATE", "value": "inactive; negative"}, {"measurement": "mutagenic call", "setting": "Test System: AMES SALMONELLA TYPHIMURIUM, Strain/Indicator: TA1535, Metabolic Activation: HAMSTER, LIVER, S-9, AROCLOR 1254, Method: STANDARD PLATE", "value": "inactive; negative"}, {"measurement": "mutagenic call", "setting": "Test System: AMES SALMONELLA TYPHIMURIUM, Strain/Indicator: TA1535, Metabolic Activation: NONE, Method: STANDARD PLATE", "value": "inactive; negative"}, {"measurement": "mutagenic call", "setting": "Test System: AMES SALMONELLA TYPHIMURIUM, Strain/Indicator: TA1535, Metabolic Activation: RAT, LIVER, S-9, AROCLOR 1254, Method: STANDARD PLATE", "value": "inactive; negative"}, {"measurement": "mutagenic call", "setting": "Test System: AMES SALMONELLA TYPHIMURIUM, Strain/Indicator: TA1537, Metabolic Activation: HAMSTER, LIVER, S-9, AROCLOR 1254, Method: STANDARD PLATE", "value": "inactive; negative"}, {"measurement": "mutagenic call", "setting": "Test System: AMES SALMONELLA TYPHIMURIUM, Strain/Indicator: TA1537, Metabolic Activation: NONE, Method: STANDARD PLATE", "value": "inactive; negative"}, {"measurement": "mutagenic call", "setting": "Test System: AMES SALMONELLA TYPHIMURIUM, Strain/Indicator: TA1537, Metabolic Activation: RAT, LIVER, S-9, AROCLOR 1254, Method: STANDARD PLATE", "value": "inactive; negative"}, {"measurement": "mutagenic call", "setting": "Test System: AMES SALMONELLA TYPHIMURIUM, Strain/Indicator: TA1538, Metabolic Activation: HAMSTER, LIVER, S-9, AROCLOR 1254, Method: STANDARD PLATE", "value": "inactive; negative"}, {"measurement": "mutagenic call", "setting": "Test System: AMES SALMONELLA TYPHIMURIUM, Strain/Indicator: TA1538, Metabolic Activation: NONE, Method: STANDARD PLATE", "value": "inactive; negative"}, {"measurement": "mutagenic call", "setting": "Test System: AMES SALMONELLA TYPHIMURIUM, Strain/Indicator: TA1538, Metabolic Activation: RAT, LIVER, S-9, AROCLOR 1254, Method: STANDARD PLATE", "value": "inactive; negative"}, {"measurement": "mutagenic call", "setting": "Test System: MOUSE LYMPHOMA, Strain/Indicator: L5178Y (TK+/TK-), Metabolic Activation: NONE, Method: SUSPENSION/PLATE", "value": "inactive; negative. reevaluation of results: negative"}, {"measurement": "mutagenic call", "setting": "Test System: MOUSE LYMPHOMA, Strain/Indicator: L5178Y (TK+/TK-), Metabolic Activation: RAT, LIVER, S-9, AROCLOR 1254, Method: SUSPENSION/PLATE", "value": "inactive; negative. reevaluation of results: equivocal"}]}, {"smiles": "O=C1CCCCC1", "values": [{"measurement": "mutagenic call", "setting": "Test System: AMES SALMONELLA TYPHIMURIUM, Strain/Indicator: TA98, Metabolic Activation: HAMSTER, LIVER, S-9, AROCLOR 1254, Method: PREINCUBATION", "value": "inactive; negative"}, {"measurement": "mutagenic call", "setting": "Test System: AMES SALMONELLA TYPHIMURIUM, Strain/Indicator: TA98, Metabolic Activation: NONE, Method: PREINCUBATION", "value": "inactive; negative"}, {"measurement": "mutagenic call", "setting": "Test System: AMES SALMONELLA TYPHIMURIUM, Strain/Indicator: TA98, Metabolic Activation: RAT, LIVER, S-9, AROCLOR 1254, Method: PREINCUBATION", "value": "inactive; negative"}, {"measurement": "mutagenic call", "setting": "Test System: AMES SALMONELLA TYPHIMURIUM, Strain/Indicator: TA100, Metabolic Activation: HAMSTER, LIVER, S-9, AROCLOR 1254, Method: PREINCUBATION", "value": "inactive; negative"}, {"measurement": "mutagenic call", "setting": "Test System: AMES SALMONELLA TYPHIMURIUM, Strain/Indicator: TA100, Metabolic Activation: NONE, Method: PREINCUBATION", "value": "inactive; negative"}, {"measurement": "mutagenic call", "setting": "Test System: AMES SALMONELLA TYPHIMURIUM, Strain/Indicator: TA100, Metabolic Activation: RAT, LIVER, S-9, AROCLOR 1254, Method: PREINCUBATION", "value": "inactive; negative"}, {"measurement": "mutagenic call", "setting": "Test System: AMES SALMONELLA TYPHIMURIUM, Strain/Indicator: TA1535, Metabolic Activation: HAMSTER, LIVER, S-9, AROCLOR 1254, Method: PREINCUBATION", "value": "inactive; negative"}, {"measurement": "mutagenic call", "setting": "Test System: AMES SALMONELLA TYPHIMURIUM, Strain/Indicator: TA1535, Metabolic Activation: NONE, Method: PREINCUBATION", "value": "inactive; negative"}, {"measurement": "mutagenic call", "setting": "Test System: AMES SALMONELLA TYPHIMURIUM, Strain/Indicator: TA1535, Metabolic Activation: RAT, LIVER, S-9, AROCLOR 1254, Method: PREINCUBATION", "value": "inactive; negative"}, {"measurement": "mutagenic call", "setting": "Test System: AMES SALMONELLA TYPHIMURIUM, Strain/Indicator: TA1537, Metabolic Activation: HAMSTER, LIVER, S-9, AROCLOR 1254, Method: PREINCUBATION", "value": "inactive; negative"}, {"measurement": "mutagenic call", "setting": "Test System: AMES SALMONELLA TYPHIMURIUM, Strain/Indicator: TA1537, Metabolic Activation: NONE, Method: PREINCUBATION", "value": "inactive; negative"}, {"measurement": "mutagenic call", "setting": "Test System: AMES SALMONELLA TYPHIMURIUM, Strain/Indicator: TA1537, Metabolic Activation: RAT, LIVER, S-9, AROCLOR 1254, Method: PREINCUBATION", "value": "inactive; negative"}, {"measurement": "mutagenic call", "setting": "Test System: Mouse lymphoma, Strain/Indicator: L5178Y (tk+/tk-), Metabolic Activation: None, Method: Suspension/plate", "value": "inactive; negative"}, {"measurement": "mutagenic call", "setting": "Test System: Mouse lymphoma, Strain/Indicator: L5178Y (tk+/tk-), Metabolic Activation: Rat, Liver, S-9, Aroclor 1254, Method: Suspension/plate", "value": "active; positive"}]}, {"smiles": "NCCc1cc(O)c(O)cc1O", "values": [{"measurement": "mutagenic call", "setting": "Test System: AMES SALMONELLA TYPHIMURIUM, Strain/Indicator: TA102, Metabolic Activation: NONE, Method: STANDARD PLATE", "value": "active; positive"}, {"measurement": "mutagenic call", "setting": "Test System: AMES SALMONELLA TYPHIMURIUM, Strain/Indicator: TA104, Metabolic Activation: NONE, Method: STANDARD PLATE", "value": "active; positive"}]}, {"smiles": "COC(=O)c1ccc([N+](=O)[O-])o1", "values": [{"measurement": "mutagenic call", "setting": "[1]", "value": "active; positive"}, {"measurement": "mutagenic call", "setting": "[2]", "value": "active; positive"}]}, {"smiles": "O=[N+]([O-])c1cc2c3c(cccc3c1)-c1ccccc1-2", "values": [{"measurement": "mutagenic call", "setting": "Test System: AMES SALMONELLA TYPHIMURIUM, Strain/Indicator: TA98(1,8-DNP6), Metabolic Activation: NONE, Method: STANDARD PLATE", "value": "inactive; negative"}, {"measurement": "mutagenic call", "setting": "Test System: AMES SALMONELLA TYPHIMURIUM, Strain/Indicator: TA98(NR), Metabolic Activation: NONE, Method: STANDARD PLATE", "value": "inactive; negative"}, {"measurement": "mutagenic call", "setting": "[1]", "value": "active; positive"}, {"measurement": "mutagenic call", "setting": "Test System: AMES SALMONELLA TYPHIMURIUM, Strain/Indicator: TA7001, Metabolic Activation: NONE, Method: PREINCUBATION", "value": "inactive; negative"}, {"measurement": "mutagenic call", "setting": "Test System: AMES SALMONELLA TYPHIMURIUM, Strain/Indicator: TA7002, Metabolic Activation: NONE, Method: PREINCUBATION", "value": "active; positive"}, {"measurement": "mutagenic call", "setting": "Test System: AMES SALMONELLA TYPHIMURIUM, Strain/Indicator: TA7003, Metabolic Activation: NONE, Method: PREINCUBATION", "value": "inactive; negative"}, {"measurement": "mutagenic call", "setting": "Test System: AMES SALMONELLA TYPHIMURIUM, Strain/Indicator: TA7004, Metabolic Activation: NONE, Method: PREINCUBATION", "value": "active; positive"}, {"measurement": "mutagenic call", "setting": "Test System: AMES SALMONELLA TYPHIMURIUM, Strain/Indicator: TA7005, Metabolic Activation: NONE, Method: PREINCUBATION", "value": "active; positive"}, {"measurement": "mutagenic call", "setting": "Test System: AMES SALMONELLA TYPHIMURIUM, Strain/Indicator: TA7006, Metabolic Activation: NONE, Method: PREINCUBATION", "value": "active; positive"}]}]}
